Patent US20060135415A1, “Immunomodulation and effect on cell processes relating to serotonin family receptors and the blood-brain barrier” (priority 2002, published 2006)
“Also recorded” adds a separate entry of the source.

Assays:
[1] = tested on: Chronic Lymphocytic Leukemia tumor cells; experiment: Ex planted bone marrow aspirates from a CLL patient; format: cell-based, human
RPMI 8226 cells [2] = experiment: Annexin V / propidium iodide flow cytometry; format: cell-based, human; settings: RPMI 8226 cells (FIGS. 27, 34)
Procedure: Early apoptotic cells were detected by co-staining cells previously exposed to each experimental condition. Briefly, cells were incubated during a time course in the presence of various concentrations of each experimental or control apoptosis inducing agent as set forth elsewhere herein. After incubation, the cells were washed with ice-cold PBS, stained with Annexin V-Alexa flour 488 and Propidium Iodide (Molecular Probes, Eugene, Oreg.) and analyzed by dual-color flow cytometry. Annexin V^+ and PI^− cells were considered as early apoptotic cells. The known terminal differentiator of myeloma cells, HMBA (hexamethylene-bis-acetamide), and the topoisomerase inhibitor, camtothecin, were used as positive controls for apoptosis at 5 mM and 2 μM, respectively.
Therefore, the degree of apoptosis in a cell population can be ascertained by assessing the presence of annexin-V positive cells and the absence of propidium iodide (PI) staining cells (necrotic cells). […] The extent of apoptosis was determined by analyzing flow cytometry data and generating FACS plots, which were then gated to include only the population of cells which were PI negative (non-necrotic). The degree of annexin-V positive cells was then measured in this PI negative cell population as a measure of apoptosis (FIG. 34).

human 5HT2C-INI receptor = target: T1, human 5HT2C-INI receptor (Homo sapiens, UniProt P28335); settings: HEK-293 cells, data from Rauser et al. 2001 (FIG. 38); cited from earlier work
T1 sequence (P28335 33-458): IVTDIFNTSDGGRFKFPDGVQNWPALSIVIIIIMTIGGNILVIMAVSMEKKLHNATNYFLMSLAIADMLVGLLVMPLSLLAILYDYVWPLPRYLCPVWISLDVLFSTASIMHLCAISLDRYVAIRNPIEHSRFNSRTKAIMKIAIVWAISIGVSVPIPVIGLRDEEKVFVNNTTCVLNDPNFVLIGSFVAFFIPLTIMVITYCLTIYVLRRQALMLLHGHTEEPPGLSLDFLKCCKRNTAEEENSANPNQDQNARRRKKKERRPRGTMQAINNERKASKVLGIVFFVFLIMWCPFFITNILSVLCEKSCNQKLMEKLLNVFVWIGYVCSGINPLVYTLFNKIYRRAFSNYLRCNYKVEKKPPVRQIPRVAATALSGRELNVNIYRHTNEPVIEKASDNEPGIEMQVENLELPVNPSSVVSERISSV

[3] = tested on: ConA stimulated human lymphocytes; experiment: Human mitogenic (ConA) stimulation, 3H-thymidine incorporation; format: cell-based; settings: for activation / proliferative response: 5 μg/ml ConA, harvest 72 hours, drug titration (FIGS. 7A, 8A, 9A, 17, 33)
Procedure: Blood from healthy volunteers was drawn using venipuncture, using Vacutainer collection sets and heparinized collection vials. The blood was diluted 1:1 using HBSS to a total volume of 30 ml in 50 ml conical tubes (Fisher Scientific, Co., Pittsburgh, Pa.). […] Cells from the buffy coats were collected and the residual Histopaque was washed away using repeated centrifugations in HBSS. After washes, cells were resuspended at 5 million cells per ml in RPMI, supplemented with 2% FBS. To remove adherent cells, the suspension was plated onto a 6 well flat-bottom plate (Corning Costar), 3 ml/well, and incubated for 2 hours at 37° C., 5% CO2. Non-adherent cells were harvested after this incubation, were counted and resuspended in RPMI supplemented with 10% human serum (Sigma).
All drugs were pre-plated before the cell suspension was added onto each well of a 96-well round-bottom plate. All experimental conditions were assayed in at least triplicate. Cells suspended in RPMI supplemented with 10% human serum were plated at 100,000 cells per well to a final volume of 200 μl. […] Control samples received no ConA stimulation. The plates were incubated at 37° C. and 5% CO2.

RPMI 8226 cells [4] = experiment: DNA fragmentation (internucleosomal laddering); format: cell-based, human; settings: RPMI 8226 cells (FIGS. 26, 35)
Procedure: Cells (8×10^5) were washed with ice-cold PBS following experimental treatments and pelleted by centrifugation (500×g, 5 min). Cell pellets were incubated for 5 minutes on ice in lysis buffer (1% IGEPAL-CA630, 20 mM EDTA, 50 mM Tris-HCL, pH 7.5). Lysates were centrifuged at about 1,600×g for 5 minutes. 501 μL of lysis buffer was added to the supernatant. The extract was brought to 1% SDS and treated for 2 hours with 5 μg/μL Rnase A (57° C.) followed by treatment with 2.5 μg/μL proteinase K for 2 hours (37° C.). After digestion of RNA and protein, half volume of 10 M ammonium acetate was added and the DNA was precipitated using 2.5 volumes of ethanol, washed in 70% ethanol, air-dried, and dissolved in TE buffer. DNA fragments were separated by electrophoresis in 1.5% agarose gels using a protocol adapted from Siegel et al. (1998, Proc. Natl. Acad. Sci. USA 95:162-166).

[5] = In vivo screen for sedation / CNS effects after i.v. injection; set-up: species or system BALB/c mice
Procedure: Both QSS5 and QSS6 were assayed in vivo for the immediate ‘sleep’ effect.

AKT = experiment: Western blot of phospho-(ser473)-AKT; format: cell-based, human; settings: RPMI-8226 cells, 0, 6.25, 12.5, 25 μM for 3 hours (FIG. 37)
Procedure: 5×10^6 cells RPMI-8226 cells were treated with 0, 6.25, 12.5, and 25 μM SB216641 for 3 hours. Cells were lysed in lysis buffer (1% IGEPAL CA-635, 150 mM NaCl, 20 mM Tris-Cl pH 7.4, 1 mM PMSF, 1 mM EGTA, 1 mM NaF, 1 μg/mL aprotinin, 10 μg/mL leupeptin, 1 mM Na2OVa, 5 mM BGP) on ice for 15 minutes followed by centrifugation for 10 min to clear the lysate of membrane fragment. Supernatants were collected and protein concentrations determined with the BioRad Detergent Compatible Kit (Hercules, Calif.).
One-hundred micrograms of protein were loaded into each lane and separated through a 4% SDS-PAGE stacking gel and a 12% SDS-PAGE resolving gel. Proteins were electro-transferred to a 0.2 μm nitrocellulose membrane in transfer buffer (25 mM Tris, 192 mM glycine, 20% methanol, 0.1% SDS). Membranes were immuno-blotted with an anti-phosphoAkt antibody (New England Biolabs, Beverly, Mass.) to the serine-473 phosphorylation residue required for AKT activation and any antibody bound was visualized using an enhanced chemiluminescent system.

RPMI-8226 cells = experiment: Cytospin histochemistry (H&E, bis-benzamide) for chromatin; format: cell-based, human; settings: 9 hour treatments; 50 μM SB compounds, 2 μM camptothecin (FIGS. 28, 29)
Procedure: 2.0×10^5 RPMI-8226 cells were cultured, in 6-well culture plates, in the presence of the indicated drug concentrations, in a total of 5 mL RPMI-1640 supplemented with 10% FBS. Each well was harvested in its entirety and divided into two identical samples for cytospins.
1.0×10^5 RPMI-8226 cells from each treatment group were loaded into Cyto-funnels and centrifuged at 500 rpm for 4 minutes with medium acceleration. Slides were then fixed through graded methanol in PBS (100%, 5 minutes; 80%, 5 minutes; 50%, 5 minutes), washed for 5 minutes in PBS and stored in PBS at 4° C. until stained.
Cytospun slides were stained with Hematoxylin and Eosin, followed by the nuclear stain, bis-benzamide, rinsed and mounted according to standard staining protocols. Slides were visualized under both brightfield and fluorescent light to generate matched images of the same slide field (see, e.g., FIGS. 28 and 29).

[6] = tested on: RPMI 8226 multiple myeloma cells; experiment: RPMI 8226 cell viability and proliferation (trypan blue, MTT, 3H-thymidine); format: cell-based, human; settings: 3H-thymidine uptake, drug titration (FIGS. 19-25, 31, 32)
Procedure: The human plasmacytoma (multiple myeloma) cell line, RPMI 8226 (American Type Culture Collection, Manassas, Va.), was cultured in RPMI 1640 supplemented with 10 mM HEPES, 1 mM sodium pyruvate, 4.5 g/L glucose, 1.5 g/L bicarbonate and 20% FBS (non-heat inactivated).
Cell proliferation was assayed by three methods—Trypan Blue Exclusion was used to quantify the number of viable cells in culture; 3-(4,5-dimethylthiazol-2-yl)-2,5-diphenyl tetrazolium bromide (MTT) reduction was used to assay mitochondrial activity (and thus cell viability); and ^3H-Thymidine uptake was employed to assay for active DNA synthesis.
Three separate indicators of cell proliferation were employed to study the effects of 5-HT receptor modulating agents on the human multiple myeloma cell line, RPMI 8226. Cells were plated at 4 separate densities and were treated with LY53587 (an antagonist of the 5-HT2A/2B/2C receptors) at a range of concentrations. The exclusion of trypan blue dye was used as an indicator of cell viability. Cell numbers were then plotted against the concentration of drug added.
MTT reduction was also used as an indicator of cell viability (more specifically, mitochondrial activity). Absorbance values at OD570 were then plotted against drug concentration. Finally, DNA synthesis was assayed, through the measurement of ^3H-thymidine uptake, and counts per minute (CPMs) were plotted against drug concentration.
Culturing and administration of drugs and ^3H-thymidine were performed as described elsewhere herein.

[7] = tested on: allogeneic stimulation of human lymphocytes; experiment: Human mixed lymphocyte reaction (allogeneic stimulation), 3H-thymidine; format: cell-based
Description: Blood from two healthy, non-related, donors was taken as described above. Peripheral blood mononuclear cells were isolated as described previously elsewhere. The adherent cells were separated from the suspension cells as described previously for both donors. Suspension cells from both donors (donors A and B) were used as responders. The remaining adherent cells from each of the donors were used as stimulators against a different donor (suspension A against adherent B and adherent A against suspension B). The stimulator cells were irradiated at 35 Gy. Drugs were pre-plated onto 96 well, U-bottom plates in triplicate. 200,000 “stimulator” cells in RPMI supplemented with 10% human serum were then plated in each well. 200,000 “responder” cells in the same medium were then plated over stimulators to a final volume of 200 μl/well. Background controls received either no stimulator cells, or no responder cells. The plates were incubated at 37° C. and 5% CO2. 1 μCi of tritiated thymidine was added to each well after 4.5 days, and the plates were harvested 12 hours later.

cells = experiment: Cell morphology change on inhibition of serotonergic signalling; format: cell-based; settings: after 24 hours of treatment (FIG. 30)
Procedure: Briefly, cells were incubated with a 5-HTR antagonist (e.g., a selective type 1B inhibitor SD 216641) and the effects of treatment were assessed after 24 hours. […] For instance, detection of cell changes can be assessed using optical instruments (electron and light microscopy, as well as fluorescence activated cell sorting, and the like), or any other device that assesses and detects changes in cell size, density, morphology, and the like. Such devices are well known in the art and are not recounted here.

IC50 ([3]; ConA stimulation, read-out: apparent IC50) [nM] | IC50 ([7]; allogeneic stimuli (weaker signal strength), read-out: apparent IC50) [nM] | Compound | tumor cell burden [1] | apoptosis, annexin-V positive / PI negative cells (RPMI 8226 cells [2]) | inverse agonism / inhibition of 5-HT 2C receptor (human 5HT2C-INI receptor) | activation / proliferative response [3] | in vitro activation / proliferation of (helper) T cells ([3]; in vitro) | DNA laddering (RPMI 8226 cells [4]) | duration of sleep ([5]; 15 mg/kg i.v. tail vein, BALB/c mice) | sedation / abnormal behavior ([5]; 15 mg/kg i.v. tail vein, BALB/c mice, observed over 72 hour period) | sedative effect ([5]; intravenous injection in an animal) | phospho-(ser473)-AKT level (AKT) | phospho-(ser473)-AKT level (AKT; listed as SB216641) | chromatin condensation / fragmentation (apoptosis) (RPMI-8226 cells) | growth / proliferation of RPMI 8226 cells [6] | activation / proliferative response ([7]; allogeneic stimulation, harvest 120 hours, drug titration (FIGS. 7B, 8B, 9B)) | change in cell morphology (cells)
– | – | OCCN1CCN(CCCN2c3ccccc3Sc3ccc(C(F)(F)F)cc32)CC1 [Fluphenazine] | reduces the tumor cell burden | significantly greater degree of apoptosis than any of the control cell populations | potent inverse agonist; also recorded: effective inhibitor (inverse agonist) | dramatic and dose-dependent decrease in proliferation | inhibits T cell responses | increase in DNA laddering over control cell extracts | approximately 10 hours | instantly sedated | strong sedative, inducing sleep in an animal before the needle is withdrawn from the vein | – | – | – | – | – | –
~200 | ~50 | COc1ccc(NC(=O)c2ccc(-c3ccc(-c4noc(C)n4)cc3C)cc2)cc1OCCN(C)C [SB 216641] | – | – | – | complete inhibition of the activation response | – | increase in DNA laddering over control cell extracts | – | – | – | down-regulates the activity of AKT | dose dependant decrease in phosphor-(ser473)-AKT | Extensive chromatin condensation and nuclear fragmentation; also recorded: induced programmed cell death comparable to that induced by the topoisomerase I inhibitor, camptothecin | completely inhibited the growth of the cancer cells | complete inhibition of the activation response | an increase in cell size
